PubChem BioAssay AID179 (DTP/NCI, 2004)
Active and inactive are the calls of the source.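 The calls were made as follows: active = compounds giving half or more protection of infected cells from virus-caused growth loss, again on retest; inactive = the rest.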

System: CEM cells HIV-1 protection, formazan growth assay
Assay: NCI AIDS Antiviral Assay
Conditions: for IC50: measured here: growth of uninfected CEM cells
Summary of the method: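 CEM (human) cells, HIV-1 infected vs uninfected, 5-point dosing, formazan growth read-out. Retest threshold 50% protection.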

Row | SMILES | outcome | EC50 [µM] | IC50 [µM]
1 | CC1=CC(=C(c2ccc(N)cc2)c2ccc(N)cc2)C=CC1=N | inactive | – | –
2 | COC(=O)CCC1=NOC(CC2CC(CCC(=O)OC)=NO2)C1 (stereo unspecified) | inactive | – | –
3 | CC1C/C(=C\c2ccc(O)c(O)c2)C(=O)/C(=C/c2ccc(O)c(O)c2)C1 (stereo unspecified) | – | > 200 | 10
4 | CC1COC(c2cn[nH]c2C(N)=O)C1O (stereo unspecified) | – | > 200 | > 200
5 | COc1ccc(CC(CC(=O)O)NC(C)=O)cc1 (stereo unspecified) | – | > 1000 | > 1000
6 | [O-][n+]1c(-c2ccccc2)oc2ccccc21 | – | > 9.55 | > 9.55
7 | COc1ccc2c(c1)c1c(n2CCN2CCOCC2)-c2cccc(OC)c2CC1 | inactive | – | –
8 | Nc1nc(Cl)c(N=Nc2ccc(Cl)cc2)c(NCC2(CO)CC2)n1 | – | > 200 | > 200
9 | COCOc1cc(C)c(C(=O)Oc2cc(C)c(C(=O)OC)c(OCOC)c2C)c(OCOC)c1C=O | – | > 200 | 26.9
10 | CCOC(=O)C1(C(=O)OCC)C[C@]23OCCC(=O)[C@H]2[C@H]2C(=O)OC(C)(C)O[C@]23C1 | – | > 200 | > 200
11 | c1c2c(cc3c1OCN(C1CC1)C3)OCN(C1CC1)C2 | – | > 51.3 | 4.27
12 | Cc1cn(C2CC(N=[N+]=[N-])C(COC(=O)CCCCCCCCCCCOc3ccccc3)O2)c(=O)[nH]c1=O (stereo unspecified) | – | 0.0501 | 102
13 | Cc1cn(C2CC(SCCO)C(CO)O2)c(=O)[nH]c1=O (stereo unspecified) | – | > 200 | > 200
14 | COc1cccc(C=C2N=C(C)N(n3c(-c4ccccc4)nc4ccccc4c3=O)C2=O)c1 | – | > 200 | 72.4
15 | S=c1nc(N2CCCCC2)ss1 | inactive | – | –
16 | Cc1ccc(NC(=O)CC2SC(=Nc3ccc(Cl)cc3)NC2=O)cc1C (stereo unspecified) | – | > 51.3 | > 51.3
17 | CO/C(=N/N1CC1C(F)(F)F)c1ccncc1 (stereo unspecified) | inactive | – | –
18 | [CH3][Sn]([CH3])([CH3])[O]C(=O)C(O)c1ccccc1 (stereo unspecified) | inactive | – | –
19 | COC(=O)N(CCc1ccccc1)C(C)(C)C#N | – | > 29.5 | > 29.5

Row | SMILES | outcome | EC50 [µM] | IC50 [µM]
20 | NC(=S)N/C=C(/c1ccc(Cl)cc1Cl)S(=O)(=O)Cc1ccc(Cl)cc1Cl | – | > 100 | > 100
21 | COC(=O)c1ccccc1C1CN=NC12Cc1cc(C)ccc1C2=O (stereo unspecified) | – | > 200 | > 200
22 | CCOC(=O)/C(Cc1cc[n+]([O-])cc1)=N/O | inactive | – | –
23 | COC(=O)c1ccccc1C1CN=NC12Cc1c(ccc(C)c1C)C2=O (stereo unspecified) | – | > 151 | > 151
24 | COC1/C=C/OC2(C)Oc3c(C)c(O)c4c(O)c(c(/C=N/NC5CCCCCCCCCCCCCC5)c(O)c4c3C2=O)NC(=O)/C(C)=C\C=C\C(C)C(O)C(C)C(O)C(C)C(OC(C)=O)C1C (stereo unspecified) | – | > 200 | 10.5
25 | O=Cc1ccc(C=O)n1C1CCOC1=O (stereo unspecified) | inactive | – | –
26 | CN(C)C12CCCCC1S(=O)(=O)C2 (stereo unspecified) | – | > 891 | > 891
27 | CCc1nc2cc(F)ccc2[nH]c1=O | – | > 200 | 132
28 | N#CC(N)=Nc1ccccc1 | – | > 617 | 347
29 | CC(C)OC/N=C(/N)NC#N | – | > 575 | > 575
30 | CCCCCC=C(c1cc(Br)c(OC)c(C(=O)O)c1)c1cc(Br)c(OC)c(C(=O)O)c1 | – | > 200 | 91.2
31 | C[N+]1=C(c2cccnc2/C=N/O)OCC1(C)C | – | > 692 | 417
32 | COc1ccc(CCCNC(=O)Cc2cc(OC)c(OC)cc2CO)cc1OC | – | > 200 | 17.8
33 | CC(CNC(=O)c1ccccc1)(CNC(=O)c1ccccc1)[N+](=O)[O-] | inactive | – | –
34 | O=C1CN(CC2=CC3(CC2)CCC2=C3CCCC2=O)C(=O)N1 (stereo unspecified) | – | > 417 | > 417
35 | CCOC(=O)C(=C=C=C(c1ccccc1)c1ccccc1)C(=O)OCC | inactive | – | –
36 | CN1CCN(c2ncc3c(n2)sc2c(=O)n(-c4ccccc4)cnc23)CC1 | – | > 200 | > 200
37 | COC(OC)C1OC(CO)C(n2ccc(N)nc2=O)C1O (stereo unspecified) | – | > 200 | > 200
38 | CC(C)(C)c1cc(C2COC(=O)COCCOCC(=O)OCCOCCO2)cc(C(C)(C)C)c1O (stereo unspecified) | – | > 200 | 178
